Source: patent EP2276483B1, “SOLID FORMS COMPRISING (+)-2-[1-(3-ETHOXY-4-METHOXYPHENYL)-2-METHYLSULFONYLETHYL]-4-ACETYLAMINOISOINDOLINE-1,3-DIONE, COMPOSITIONS THEREOF, AND USES THEREOF” (CELGENE CORPORATION, priority 2008, dated 2009)

What was measured:
TNF-α = experiment: Human Whole Blood LPS-induced TNF-α assay; assay type: cell-based
Procedure: The ability of compounds to inhibit LPS-induced-TNF-α production by human whole blood was measured essentially as described below for the LPS-induced TNF-α assay in human PBMC, except that freshly drawn whole blood was used instead of PBMC.
Lipopolysaccharide (LPS) is an endotoxin produced by gram-negative bacteria such as E. coli which induces production of many pro-inflammatory cytokines, including TNF-α. In peripheral blood mononuclear cells (PBMC), the TNF-α produced in response to LPS is derived from monocytes, which comprise approximately 5-20% of the total PBMC. Compounds were tested for the ability to inhibit LPS-induced TNF-α production from human PBMC as previously described (Muller et al., 1996, J. Med. Chem., 39:3238). PBMC from normal donors were obtained by Ficoll Hypaque (Pharmacia, Piscataway, NJ, USA) density centrifugation. Cells were cultured in RPMI (Life Technologies, Grand Island, NY, USA) supplemented with 10% AB± human serum (Gemini Bio-products, Woodland, CA, USA), 2 mM L-glutamine, 100 U/ml penicillin, and 100 µg/ml streptomycin (Life Technologies).
PBMC (2 x 10^5 cells) were plated in 96-well flat-bottom Costar tissue culture plates (Coming, NY, USA) in triplicate. Cells were stimulated with LPS (Sigma, St. Louis, MO, USA) at 100 ng/ml in the absence or presence of compounds. […]

IL-2 = experiment: cells; assay type: cell-based; settings: Homo sapiens, PBMC, read-out: IL-2 IC50
IL-8 = experiment: Zymosan-induced IL-8 production in human neutrophils; assay type: cell-based; settings: Neutrophil
Procedure: Zymosan A, or the heat-killed yeast Saccharomyces cerevisiae, binds to the adhesion molecule Mac-1 on the neutrophil surface and triggers phagocytosis, cell activation and IL-8 production. Zymosan-induced IL-8 production was measured as previously described (Au et al., 1998, Brit. J. Pharm., 123:1260-1266) with the following modifications. Human neutrophils were purified as described above, plated in 96-well tissue culture plates at 3x10^5 cells/well in complete medium, treated with compounds at 10, 2, 0.4, 0.08, 0.016, 0.0032, 0.00064, and 0 µM in duplicate in a final DMSO concentration of 0.1% for 1 hour at 37°C 5% CO2. Neutrophils were then stimulated with unopsonized, boiled Zymosan A (Sigma) at 2.5 x 10^5 particles/well for 18 hours. Supernatants were harvested and tested for IL-8 by ELISA (R&D Systems).

[1] = Aqueous equilibrium solubility in pH 7.4 buffer; assay type: physicochemical; settings: pH 7.4
Procedure: Equilibrium solubilities were measured in pH 7.4 aqueous buffer. The pH 7.4 buffer was prepared by adjusting the pH of a 0.07 M NaH2PO4 solution to 7.4 with 10 N NaOH. The ionic strength of the solution was 0.15. At least 1 mg of powder was combined with 1 ml of buffer to make >1 mg/ml mixture. These samples were shaken for >2 hours and left to stand overnight at room temperature. The samples were then filtered through a 0.45-µm Nylon syringe filter that was first saturated with the sample. The filtrate was sampled twice, consecutively. The filtrate was assayed by HPLC against standards prepared in 50% methanol.

[2] = system: LPS-induced pulmonary neutrophilia; experiment: LPS-induced lung neutrophilia ferret model; assay type: in vivo, ferrets (Mustela Pulorius Euro); settings: Mustela putorius, po; conscious ferret, p.o.; read-out: Inhibition of LPS-induced neutrophilia (ED50 mg/kg)
Description: The conscious ferret model has been used to investigate anti-inflammatory, emetic and behavioral effects of PDE4 inhibitors when administered by the oral (p.o.) route. From these experiments, a therapeutic index (TI) for each PDE4 inhibitor may be determined. The TI has been calculated by dividing the threshold dose for causing emetic episodes and behavioral changes by the anti-inflammatory dose (dose that causes 50% inhibition of the LPS-induced neutrophilia).
Male ferrets (Mustela Pulorius Euro, weighing 1 - 2 kg). Ferrets were supplied either by Bury Green Farm or Misay Consultancy. Following transport, the animals were allowed to acclimatize in the holding rooms for a period of not less than seven days. The diet comprised SDS diet C pelleted food given ad lib with Whiskers™ cat food given three times per week. Water was pasteurized animal grade drinking water and was changed daily. […]
Thirty minutes after p.o. dosing with compound or vehicle control, the ferrets were placed into sealed Perspex containers and exposed to an aerosol of LPS (100 µg/ml) for 10 minutes. […] Observation continued for a period of at least 2.5 hours post p.o. dosing and emetic episodes and behavioral changes were recorded. […]
The bronchoalveolar lavage (BAL) samples were centrifuged at 1,500 rpm for 5 minutes. […] From this, the total number of neutrophils in the BAL was determined. […]

Q: With `CCOc1cc(C(CS(C)(=O)=O)N2C(=O)c3cccc(NC(C)=O)c3C2=O)ccc1OC` (single isomer, unassigned; (+)) [Compound A, (+)-2-[1-(3-ethoxy-4-methoxyphenyl)-2-methylsulfonylethyl]-4-acetylaminoisoindoline-1,3-dione] as the compound, how does the IC50 (TNF-α) read?
A: 294 nM

Q: And the IC50 (IL-2)?
A: 291 nM

Q: And the IC50 (IL-8)?
A: 94 nM

Q: And the Measured solubility [1]?
A: 12 µg/mL

Q: And the “greater aqueous solubility than the racemic mixture” value [1]?
A: 3.5 fold

Q: What about the ED50 [2] of the same compound?
A: 0.8 mg/kg
